Results published in patent publication US9145392B2, “Imidazole amines as modulators of kinase activity” (Merck Patent GmbH, priority 2011, dated 2015).

What was measured:
[1] = molecular target: P70S6K (T412E mutant) (Homo sapiens (Human), UniProt P23443, T412E); assay: P70S6K enzyme assay; type: biochemical; conditions: read-out: IC50 p70S6K
How it was run: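 Read-out is the substrate/phosphopeptide ratio from mobility-shift electrophoresis on a LabChip 3000.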

[2] = molecular target: His-AKT (Full Length) (Homo sapiens (Human), UniProt P31749); assay: AKT enzyme assay; type: biochemical; conditions: read-out: IC50 AKT
Sequence of His-AKT (Full Length) (P31749 whole entry): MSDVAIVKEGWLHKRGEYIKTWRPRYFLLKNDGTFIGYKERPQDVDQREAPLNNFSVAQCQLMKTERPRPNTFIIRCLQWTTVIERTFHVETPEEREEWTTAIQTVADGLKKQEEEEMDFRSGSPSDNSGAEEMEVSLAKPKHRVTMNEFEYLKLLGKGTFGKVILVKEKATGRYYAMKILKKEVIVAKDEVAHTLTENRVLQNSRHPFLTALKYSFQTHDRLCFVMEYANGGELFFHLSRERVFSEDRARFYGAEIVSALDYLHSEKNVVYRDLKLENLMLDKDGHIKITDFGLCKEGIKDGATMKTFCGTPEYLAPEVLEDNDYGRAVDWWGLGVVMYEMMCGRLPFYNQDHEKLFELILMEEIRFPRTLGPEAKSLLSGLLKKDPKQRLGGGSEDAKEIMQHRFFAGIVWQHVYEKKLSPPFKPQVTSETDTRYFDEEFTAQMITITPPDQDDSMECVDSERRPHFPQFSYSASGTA

Sequence of P70S6K (T412E mutant) (P23443 whole entry T412E): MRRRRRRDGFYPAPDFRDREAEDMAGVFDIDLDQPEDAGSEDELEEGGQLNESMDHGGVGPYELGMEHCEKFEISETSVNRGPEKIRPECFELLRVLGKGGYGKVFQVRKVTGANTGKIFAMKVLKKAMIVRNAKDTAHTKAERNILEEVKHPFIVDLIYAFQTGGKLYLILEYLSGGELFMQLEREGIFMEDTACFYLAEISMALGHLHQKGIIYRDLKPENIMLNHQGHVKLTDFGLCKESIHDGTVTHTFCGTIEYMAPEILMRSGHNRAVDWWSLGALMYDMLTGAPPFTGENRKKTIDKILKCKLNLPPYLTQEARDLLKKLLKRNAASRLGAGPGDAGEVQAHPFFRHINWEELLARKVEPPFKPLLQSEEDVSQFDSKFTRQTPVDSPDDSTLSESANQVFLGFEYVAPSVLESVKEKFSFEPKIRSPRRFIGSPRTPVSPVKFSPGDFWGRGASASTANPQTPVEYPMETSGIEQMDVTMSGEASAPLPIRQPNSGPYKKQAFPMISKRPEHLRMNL

| SMILES | IC50 [1] | IC50 [2] |
| --- | --- | --- |
| CCc1c(N)ncnc1N1CCC(c2nc(-c3ccc(F)c(F)c3)cn2CCN2CC(F)C2)CC1 [Compound 199, 6-(4-{4-(3,4-Difluoro-phenyl)-1-[2-(3-fluoro-azetidin-1-yl)-ethyl]-1H-imidazol-2-yl}-piperidin-1-yl)-5-ethyl-pyrimidin-4-ylamine] | 0.012 µM | 0.385 µM |
| COCCNCCn1cc(-c2ccc(F)c(C(F)(F)F)c2)nc1C1CCN(c2ncnc(N)c2C(N)=O)CC1 [Compound 367, 4-Amino-6-(4-{4-(4-fluoro-3-trifluoromethyl-phenyl)-1-[2-(2-methoxy-ethylamino)-ethyl]-1H-imidazol-2-yl}-piperidin-1-yl)-pyrimidine-5-carboxylic acid amide] | 0.004 µM | 0.067 µM |
| N#Cc1c(N)ncnc1N1CCC(c2nc(C3CCCCC3)cn2CCN2CCC2)CC1 [Compound 77, 4-Amino-6-{4-[1-(2-azetidin-1-yl-ethyl)-4-cyclohexyl-1H-imidazol-2-yl]-piperidin-1-yl}-pyrimidine-5-carbonitrile] | 0.006 µM | 0.076 µM |
| NC(=O)c1c(N)ncnc1N1CCC(c2nc(-c3ccc(F)c(C(F)(F)F)c3)cn2CC2CNC2)CC1 [Compound 140, 4-amino-6-(4-(1-(azetidin-3-ylmethyl)-4-(4-fluoro-3-(trifluoromethyl)phenyl)-1H-imidazol-2-yl)piperidin-1-yl)pyrimidine-5-carboxamide] | 0.0022 µM | 0.027 µM |
| NC(=O)c1c(N)ncnc1N1CCC(c2nc(-c3ccc(F)c(C(F)(F)F)c3)cn2CC2CCCN2)CC1 (centres unmarked) [Compound 153, 4-amino-6-(4-(4-(4-fluoro-3-(trifluoromethyl)phenyl)-1-(pyrrolidin-2-ylmethyl)-1H-imidazol-2-yl)piperidin-1-yl)pyrimidine-5-carboxamide] | 0.01 µM | 0.22 µM |
| Nc1ncnc(N2CCC(c3nc(-c4ccnc(C(F)(F)F)c4)cn3CCNCCCCl)CC2)c1Br [Compound 127, 5-bromo-6-(4-(1-(2-((3-chloropropyl)amino)ethyl)-4-(2-(trifluoromethyl)pyridin-4-yl)-1H-imidazol-2-yl)piperidin-1-yl)pyrimidin-4-amine] | 0.001 µM | 0.0028 µM |
| Cn1cc(-c2ccc(F)c(C(F)(F)F)c2)nc1C1CCN(c2ncnc(N)c2-c2cccnc2)CC1 [Compound 53, 6-{4-[4-(4-Fluoro-3-trifluoromethyl-phenyl)-1-methyl-1H-imidazol-2-yl]-piperidin-1-yl}-5-pyridin-3-yl-pyrimidin-4-ylamine] | 0.0023 µM | 0.88 µM |
| Nc1ncnc(N2CCC(c3nc(-c4ccc(F)c(C(F)(F)F)c4)cn3CCN3CCCC3)CC2)c1-c1ccc(F)c(F)c1 [Compound 59] | 0.0096 µM | 0.11 µM |
| CCc1c(N)ncnc1N1CCC(c2nc(-c3cccc(Cl)c3)cn2CCN2CCC2)CC1 [Compound 279] | 0.0024 µM | 0.016 µM |
| CN(C)CCn1cc(-c2ccc(F)c(C(F)(F)F)c2)nc1C1CCN(c2ncnc(N)c2C2CC2)CC1 [Compound 91, 5-Cyclopropyl-6-(4-(1-(2-(dimethylamino)ethyl)-4-(4-fluoro-3-(trifluoromethyl)phenyl)-1H-imidazol-2-yl)piperidin-1-yl)pyrimidin-4-amine] | 0.0032 µM | 0.0048 µM |
| Cn1cc(-c2ccc(F)c(C(F)(F)F)c2)nc1C1CCN(c2ncnc(N)c2-c2ccncc2)CC1 [Compound 39, 6-{4-[4-(4-Fluoro-3-trifluoromethyl-phenyl)-1-methyl-1H-imidazol-2-yl]-piperidin-1-yl}-5-pyridin-4-yl-pyrimidin-4-ylamine] | 0.0014 µM | 0.86 µM |
| Cc1cc(-c2cn(CCO)c(C3CCN(c4ncnc(N)c4-c4cn[nH]c4)CC3)n2)ccc1F [Compound 160, 2-(2-(1-(6-amino-5-(1H-pyrazol-4-yl)pyrimidin-4-yl)piperidin-4-yl)-4-(4-fluoro-3-methylphenyl)-1H-imidazol-1-yl)ethanol] | 0.0067 µM | 0.67 µM |
| CCc1c(N)ncnc1N1CCC(c2nc(-c3ccc(F)c(C(N)=O)c3)cn2CCN2CCC2)CC1 [Compound 106, 5-(2-(1-(6-amino-5-ethylpyrimidin-4-yl)piperidin-4-yl)-1-(2-(azetidin-1-yl)ethyl)-1H-imidazol-4-yl)-2-fluorobenzamide] | 0.021 µM | 0.049 µM |
| CC(C)Oc1c(N)ncnc1N1CCC(c2nc(-c3ccc(F)c(C(F)(F)F)c3)cn2CCN(C)C)CC1 [Compound 292] | 0.0034 µM | 0.0076 µM |
| CCc1c(N)ncnc1N1CCC(c2nc(-c3cncc(Cl)c3)cn2CCN2CCC2)CC1 [Compound 101, 6-(4-(1-(2-(azetidin-1-yl)ethyl)-4-(5-chloropyridin-3-yl)-1H-imidazol-2-yl)piperidin-1-yl)-5-ethylpyrimidin-4-amine] | 0.0076 µM | 0.031 µM |
| CCc1c(N)ncnc1N1CCC(c2nc(-c3ccc(F)c(C(F)(F)F)c3)cn2CCN2CCC(F)(F)C2)CC1 [Compound 275] | 0.0028 µM | 0.43 µM |
| Cc1ccc(-c2cn(CCN3CCC3)c(C3CCN(c4ncnc(N)c4C(N)=O)CC3)n2)cc1F [Compound 344] | 0.025 µM | 2.4 µM |
| NC(=O)c1c(N)ncnc1N1CCC(c2nc(-c3ccc(F)c(C(F)(F)F)c3)cn2CCN2CCC2)CC1 [Compound 78, 4-Amino-6-{4-[1-(2-azetidin-1-yl-ethyl)-4-(4-fluoro-3-trifluoromethyl-phenyl)-1H-imidazol-2-yl]-piperidin-1-yl}-pyrimidine-5-carboxylic acid amide] | 0.002 µM | 0.014 µM |
| Nc1ncnc(N2CCC(c3nc(-c4ccnc(C(F)(F)F)c4)cn3CCNC3CC3)CC2)c1Cl [Compound 173, 5-chloro-6-(4-(1-(2-(cyclopropylamino)ethyl)-4-(2-(trifluoromethyl)pyridin-4-yl)-1H-imidazol-2-yl)piperidin-1-yl)pyrimidin-4-amine] | 0.0028 µM | 0.0036 µM |

| SMILES | IC50 [1] | IC50 [2] |
| --- | --- | --- |
| Cn1cc(-c2ccc(F)c(C(F)(F)F)c2)nc1C1CCN(c2ncnc(N)c2-c2cccc(C#N)c2)CC1 [Compound 15, 3-(4-Amino-6-{4-[4-(4-fluoro-3-trifluoromethyl-phenyl)-1-methyl-1H-imidazol-2-yl]-piperidin-1-yl}-pyrimidin-5-yl)-benzonitrile] | 0.011 µM | 0.15 µM |
| Nc1ncnc(N2CCC(c3nc(-c4ccc(Cl)cc4)cn3CCN3CCCC3)CC2)c1C1CCC1 [Compound 263] | 0.025 µM | 0.079 µM |
| CCc1c(N)ncnc1N1CCC(c2nc(-c3cccc(C(F)(F)F)n3)cn2CCN2CCC2)CC1 [Compound 119, 6-(4-(1-(2-(azetidin-1-yl)ethyl)-4-(6-(trifluoromethyl)pyridin-2-yl)-1H-imidazol-2-yl)piperidin-1-yl)-5-ethylpyrimidin-4-amine] | 0.025 µM | 0.42 µM |
| N#Cc1c(N)ncnc1N1CCC(c2nc(-c3ccc(F)cc3)cn2CCN2CCCC2)CC1 [Compound 308] | 0.0026 µM | 0.013 µM |
| Nc1ncnc(N2CCC(c3nc(-c4ccnc(C(F)(F)F)c4)cn3CCN3CCC3)CC2)c1Cl [Compound 144, 6-(4-(1-(2-(azetidin-1-yl)ethyl)-4-(2-(trifluoromethyl)pyridin-4-yl)-1H-imidazol-2-yl)piperidin-1-yl)-5-chloropyrimidin-4-amine] | 0.0011 µM | 0.0025 µM |
| N#Cc1c(N)ncnc1N1CCC(c2nc(-c3cccc(F)c3)cn2CCN2CCCC2)CC1 [Compound 309] | 0.0026 µM | 0.021 µM |
| C=Cc1c(N)ncnc1N1CCC(c2nc(-c3ccc(C(F)(F)F)cc3)cn2CCN2CCCC2)CC1 [Compound 269] | 0.01 µM | 0.19 µM |
| C=Cc1c(N)ncnc1N1CCC(c2nc(-c3ccc(F)c(C(F)(F)F)c3)cn2CCN2CCCC2)CC1 [Compound 60] | 0.0025 µM | 0.0068 µM |
| CCc1c(N)ncnc1N1CCC(c2nc(-c3ccc(F)cc3)cn2CCN2CCC3(COC3)C2)CC1 [Compound 201, 5-Ethyl-6-(4-{4-(4-fluoro-phenyl)-1-[2-(2-oxa-6-aza-spiro[3.4]oct-6-yl)-ethyl]-1H-imidazol-2-yl}-piperidin-1-yl)-pyrimidin-4-ylamine] | 0.016 µM | > 1 µM |
| CCc1c(N)ncnc1N1CCC(c2nc(-c3ccc(F)c(Cl)c3)cn2CCN2CCCC2)CC1 [Compound 252] | 0.0002 µM | 0.0004 µM |
| Cc1cc(-c2cn(CCN(C)C(C)C)c(C3CCN(c4ncnc(N)c4C#N)CC3)n2)ccc1F [Compound 379, 4-Amino-6-(4-{4-(4-fluoro-3-methyl-phenyl)-1-[2-(isopropyl-methyl-amino)-ethyl]-1H-imidazol-2-yl}-piperidin-1-yl)-pyrimidine-5-carbonitrile] | 0.0008 µM | 0.0027 µM |
| Cc1cc(-c2cn(CC3CNC3)c(C3CCN(c4ncnc(N)c4C#N)CC3)n2)ccc1F [Compound 191, 4-amino-6-(4-(1-(azetidin-3-ylmethyl)-4-(4-fluoro-3-methylphenyl)-1H-imidazol-2-yl)piperidin-1-yl)pyrimidine-5-carbonitrile] | 0.0074 µM | 0.015 µM |
| Cc1ccc(-c2cn(CCN3CCC3)c(C3CCN(c4ncnc(N)c4C#N)CC3)n2)cc1Cl [Compound 322] | 0.0013 µM | 0.013 µM |
| Cc1cc(-c2cn(CCN3CCCC3)c(C3CCN(c4ncnc(N)c4C(N)=O)CC3)n2)ccc1F [Compound 350] | 0.0023 µM | 0.01 µM |
| NC(=O)c1c(N)ncnc1N1CCC(c2nc(-c3ccnc(C(F)(F)F)c3)cn2CCN2CCC2)CC1 [Compound 128] | 0.0055 µM | 0.09 µM |
| Nc1ncnc(N2CCC(c3nc(-c4ccc(F)c(C(F)(F)F)c4)cn3CCN3CCCC3)CC2)c1-c1ccccc1F [Compound 58] | 0.0037 µM | 0.075 µM |
| Nc1ncnc(N2CCC(c3nc(-c4ccc(C(F)(F)F)cc4)cn3CCN3CCCC3)CC2)c1C1CCC1 [Compound 259] | 0.037 µM | 0.43 µM |
| CC(C)c1cc(-c2cn(CCN3CCC3)c(C3CCN(c4ncnc(N)c4C#N)CC3)n2)ccn1 [Compound 317] | 0.0017 µM | 0.011 µM |
